Assay results: publication PMC5360270 (Journal of medicinal chemistry, 2016)

Key:
Assay type in all cases: cell-based
HIV-1C = assay: Antiviral p24 assay in MT-4 cells, multi-drug resistant variant HIV-1C; conditions: 50 TCID50 HIV-1C (multi-drug resistant)
HIV-1B = assay: Antiviral p24 assay in MT-4 cells, multi-drug resistant variant HIV-1B; conditions: 50 TCID50 HIV-1B (multi-drug resistant)
HIV-1DRV^RP20 = assay: Antiviral p24 assay in MT-4 cells, multi-drug resistant variant HIV-1DRVRP20; conditions: 50 TCID50 HIV-1DRV^RP20 (multi-drug resistant)
HIV-1NL4-3 = assay: Antiviral p24 assay in MT-4 cells, wild-type HIV-1NL4-3; conditions: 50 TCID50 wild-type HIV-1NL4-3, p24 assay
HIV-1LAI = assay: Antiviral assay in MT-2 cells exposed to HIV-1LAI, MTT assay; conditions: Human immunodeficiency virus 1, MT2

| Structure (SMILES) | Mean IC50 ± SD (HIV-1C) | Mean IC50 ± SD (HIV-1B) | Mean IC50 ± SD (HIV-1DRV^RP20) | Mean IC50 ± SD (HIV-1NL4-3) | IC50 (HIV-1LAI) [nM] |
| --- | --- | --- | --- | --- | --- |
| COc1ccc(S(=O)(=O)N(CC(C)C)C[C@@H](O)[C@H](CC23CC4CC(CC(C4)C2)C3)NC(=O)O[C@H]2CCOC2)cc1 [15a, (S)-Tetrahydrofuran-3-yl ((2S,3R)-1-((1s,3R)-adamantan-1-yl)-3-hydroxy-4-((N-isobutyl-4-methoxyphenyl)sulfonamido)butan-2-yl)carbamate] | did not exhibit appreciable antiviral activity | did not exhibit appreciable antiviral activity | did not exhibit appreciable antiviral activity |  |  |
| COc1ccc(S(=O)(=O)N(CC(C)C)C[C@@H](O)[C@H](CC23CC4CC(CC(C4)C2)C3)NC(=O)O[C@H]2CO[C@H]3OCC[C@H]32)cc1 [15d, (3R,3aS,6aR)-Hexahydrofuro[2,3-b]furan-3-yl ((2S,3R)-1-((1s,3R)-adamantan-1-yl)-3-hydroxy-4-((N-isobutyl-4-methoxyphenyl)sulfonamido)butan-2-yl)carbamate] |  | did not show any appreciable antiviral activity | did not show any appreciable antiviral activity | low nanomolar |  |
| CC(C)CN(C[C@@H](O)[C@H](Cc1ccccc1)NC(=O)O[C@H]1CO[C@H]2OCC[C@H]21)S(=O)(=O)c1ccc(N)cc1 [Darunavir, darunavir] |  |  |  |  | 3 |
